The melting point is the temperature, or range, at which the solid turns liquid. Turning to `Cn1c(C(F)(F)F)cc(=O)n(-c2cc(OCC(N)=O)c(Cl)cc2F)c1=O`, the melting point lay within 104 to 106 °C.
With `COC1=CC(=O)C(OC)=C(CCCOCCC2=C(OC)C(=O)C=C(OC)C2=O)C1=O`, the melting point is 129 to 130 °C.
The same measure for `COc1ccc(Nc2nc3ccccc3c(=O)[nH]2)c(C)c1`: 270 to 272 °C; for `Cc1nn(-c2ccccn2)c(-c2ccccc2)c1CC(=O)O`: 182 to 183 °C.
`CC(C)n1nc(-c2c(-c3ccccc3)nn3ccc(OCC(=O)N4CCN(C(=O)OC(C)(C)C)CC4)cc23)ccc1=O` yielded a melting point of 140 to 144 °C.
The same measure for `CCOc1ccc(C(=NO)c2ccc(OC)c(Cl)c2Cl)c(F)c1`: 188 to 189 °C; for `CC(=O)NCCc1c(C(F)(F)F)nn2ccc3c(c12)CCO3`: 196 to 198 °C; for `CCOC(=O)c1cnc2sc3c(c2c1O)CCCC3`: 138 to 140 °C.
The same measure for `O=C1CSCC(=O)NCCNCCN1`: 206 to 208 °C.
For the molecule `CC(=O)N1CCC(OCCOc2ccc(C(N)=O)cc2)CC1`, the melting point fell in the range of 154 to 155 °C.
The molecule `COc1ccc(C=Cc2ccccc2)c(-c2ccc(-c3cc(OC)ccc3C=Cc3ccccc3)n2-c2ccc(C)cc2)c1` showed a melting point of 303 to 305 °C.
`O=c1c2ccccc2cnn1Cc1ccccc1` showed a melting point of 104 to 105 °C.
The same measure for `CC(C)c1ccc(S(=O)(=O)n2c(CCC(=O)O)cc3cc(Cl)ccc32)cc1`: 150 to 154 °C; for `COc1ccc2c(Cc3c(Cl)cncc3Cl)nn3nnnc3c2c1`: 275 to 276 °C; for `O=C(Nc1ccc(-n2nc(C(F)(F)F)cc2C(F)(F)F)cc1)c1ccoc1`: 206 to 207 °C.
The same measure for `O=C(Nc1cccnc1)N1CCN(c2nccc(-c3c(F)cccc3F)n2)CC1`: 185 to 186 °C; for `OC1CSC(Oc2ccc(Cl)nc2)C(O)C1O` (centres undefined): 218 °C.
The molecule `Fc1ccccc1C1=CCc2nnc(-c3ccncc3)n2-c2ccc(Cl)cc21` had a melting point of 198 to 200 °C.
Molecule `CNC(=O)C[C@@H](c1ccccc1)c1c[nH]c2cccc(OC)c12` returned a melting point of 178 to 181 °C.
The same measure for `O=C1C(=Cc2ccncc2)CCc2ccccc21`: 112 to 114 °C; for `CCOc1nccnn1`: 95 to 99 °C; for `COc1ccc(C(C)(C)O)cc1CN[C@H]1CN2CC[C@H]1[C@H](C(=O)O)[C@@H]2C(c1ccccc1)c1ccccc1`: 150 to 153 °C.
`CCOC(=O)c1[nH]c2ccc(Cl)cc2c1-c1ccccc1`: the melting point fell in the range of 171 to 172 °C.
Molecule `O=C(C1CCN(S(=O)(=O)c2ccc3cc(Br)ccc3c2)CC1)N1CCN(c2ccncc2)CC1` showed a melting point of 229 to 230 °C.
Take `C[C@]1(CN2CCC(OCc3ccc(C(F)(F)F)cc3)CC2)Cn2cc([N+](=O)[O-])nc2O1`: the melting point lay within 91 to 92 °C.
As to `CN1c2ccc(-c3cccc4ccccc34)cc2S(=O)(=O)c2cc(-c3cccc4ccccc34)ccc21`, the melting point lay within 221 to 225 °C.
The same measure for `CC1OC(n2cnc3c(N)nc(N)nc32)C(O)C1O` (centres undefined): 135 to 138 °C; for `Cc1oc(-c2ccccc2)nc1COc1cccc(/C=C/C=O)c1`: 103 to 104 °C; for `O=C1CN[C@@H](c2ccccc2)[C@@H](c2ccccc2)O1`: 139 °C.
The same measure for `CCOc1cc2c(cc1OC)OC(C)(C)CC2=O`: 86 to 87 °C; for `COc1ccccc1NC(=O)Nc1nc(N2CCCCC2)nc(N(CCC(=O)O)Cc2ccc(Cl)c(Cl)c2)n1`: 111 to 115 °C.
`CC(Oc1ccc(-c2cccc(S(=O)(=O)NCC(F)(F)F)c2)cc1)C(O)CCc1cccnc1` (centres undefined) returned a melting point of 47 to 48 °C.
The same measure for `CCCCNS(=O)(=O)c1ccc(OC)c(NC(C)=O)c1`: 115 to 117 °C; for `CN(C)CC1Cc2ccccc2N(S(C)(=O)=O)C1` (centres undefined): 69 to 70 °C.
The same measure for `COC(=O)c1cc(Br)c(OC)cc1O`: 122 to 124 °C; for `O=S(Cc1ccccc1)c1ncc(Br)cn1` (centres undefined): 101 °C.
The same measure for `CCCCCCCCCCCCCCCCCCOc1ccc2c(c1OCCCCCCCCCCCCCCCCCC)C(=O)c1ccccc1C2=O`: 100 to 107 °C; for `CCN1C(=O)CN(c2ccccc2)C1=O`: 142 °C; for `CCS(=O)(=O)c1ccc(-c2coc3ccc(-c4nnc(C)o4)cc23)c(Cl)c1`: 180 to 181 °C.
Take `Nc1c([N+](=O)[O-])sc2c(F)cccc12`: the melting point fell in the range of 238 to 240 °C.
The same measure for `Cc1cc2nc(Cl)c(Cl)nc2c([N+](=O)[O-])c1C`: 133 to 134 °C; for `O=C(c1ccc(Cl)cc1Cl)C1(n2cncn2)CC1`: 55 to 56 °C; for `Cc1cccc(Nc2ncnc3cc(NCCCN(C)C)c(N)cc23)c1`: 60 to 66 °C.
Regarding `CCCNC(=O)NNC(=O)c1ccc(OC)cc1`, the melting point fell in the range of 176 to 179 °C.
`CSc1sccc1C#N` returned a melting point of 112 to 115 °C.
The same measure for `COC(=O)C1=C(C)NC(C)=C(c2nc(CCl)ns2)C1c1cccc([N+](=O)[O-])c1` (centres undefined): 205 to 206 °C; for `CC(C)c1cn2ccccc2c1S(=O)(=O)c1ccc(OCCCN2CCC(c3ccccc3)CC2)cc1`: 79 to 80 °C.
On to `N#Cc1c(-c2ccccc2)c(-c2ccccc2)n[nH]c1=O`, for which the melting point was in the range of 280 to 281 °C.
In turn, `Cc1noc2nc(-c3ccccc3)cc(O)c12` showed a melting point of 281 to 282 °C.
The same measure for `CN(C)CC1(CO)C(O)C(O)C(O)CN1C` (centres undefined): 76 °C; for `O=C1CC(c2cccc(-n3ccnc3)c2)=Nc2ccc(-c3ccc(F)cc3O)cc2N1`: 220 °C.
The same measure for `O=S(=O)(c1ccc(Nc2nccc(-c3ccc(C(F)(F)F)cc3)n2)cc1)N1CCOCC1`: 240 to 241 °C; for `CCOCc1nc2c(N)nc3cc(OCCCn4cccc4)ccc3c2n1CC(C)C`: 160 to 162 °C.
The same measure for `CCCCC(=N)NC(=O)Nc1ccccc1O`: 173 to 175 °C; for `CC(=O)N(CCCCN1C(=O)c2ccccc2C1=O)c1ccccc1`: 83 to 84 °C; for `Cc1nccn1-c1nc(-c2ccc(Cl)cc2)c(CCCOc2ccccc2O)o1`: 110 to 111 °C.
`Cc1nc(C)n(-c2cc([C@@H]3C[C@H]3c3nc4ccccc4n3C)nc(N)n2)n1` (relative stereo) had a melting point of 120 to 122 °C.
On to `CC1(C)OC(c2ccc(S(C)(=O)=O)cc2F)=C(c2ccccc2)C1=O`, for which the melting point was 175 to 176 °C.
The same measure for `CCCn1c(=O)c2c(nc(C=Cc3cc(OC)c(OC)cc3S(=O)(=O)N3CCCCC3)n2C)n(CCC)c1=O`: 266 to 268 °C; for `O=C(CCl)NC(C(=O)O)c1ccc2c(c1)CCS2` (centres undefined): 173 to 175 °C; for `Fc1cccc(Cl)c1CSc1nc2cnccc2[nH]1`: 224 to 226 °C.
The same measure for `OC(CCCl)COc1ccc(Cl)cc1` (centres undefined): 62 to 64 °C.
The same measure for `O=C1Cn2ccnc2-c2c(Br)cccc2N1`: 234 to 235 °C; for `c1cncc(CNC2=Nc3ccccc3Nc3ccccc32)c1`: 150 to 152 °C.
As for `COC1C(CO)OC(n2c3ccc(C=O)cc3c3c4c(c5c6cc(C=O)ccc6[nH]c5c32)C(=O)NC4=O)C(O)C1O` (centres undefined), the melting point was more than 300 °C.
The same measure for `Cc1cc(C)c2c(n1)Nc1cc(C)c(C)cc1N(C)C2=O`: 225 to 227 °C.
The same measure for `Cn1c(C2=CC(=O)c3ccccc3C2=O)ccc1C1=CC(=O)c2ccccc2C1=O`: 320 to 321 °C; for `CC(=O)N(CCCC(=O)O)c1ccccc1-c1ccccc1`: 124 to 125 °C.
For `CC(C)NC(=O)C1c2cc(NC(=O)c3cc(C(F)(F)F)nn3-c3ncccc3Cl)c(Cl)cc2CC1O` (centres undefined), the melting point fell in the range of 204 to 205 °C.
The same measure for `CCNC(=O)CCCNC(=O)CCCNC(=O)CCCNC(=O)CCCNC(=O)OC(C)(C)C`: 196 to 197 °C; for `Cc1ccc2c(c1)c(N1CCN(C(=O)c3ccco3)CC1)c(C#N)c(=O)n2Cc1ccc(F)cc1`: 276 °C.
The same measure for `COc1cccc(-c2ccc(N3CCCN(c4ccc(-c5cccc(OC)c5)cn4)CC3)nc2)c1`: 146 to 149 °C; for `CC(C)(C)OC(=O)N1CCCN(c2cc[nH]c(=S)c2C#N)CC1`: 203 to 205 °C.
The same measure for `O=c1c(-c2ccccc2)cc(CO)c2n1CCc1ccsc1-2`: 199 to 200 °C; for `Cn1c(=O)n(O)c(=O)c2cc(F)c(F)cc21`: 239 to 241 °C.
For `CC(C)(N)CNc1ccnc2cc(Cl)ccc12`, the melting point is 169 to 171 °C.
The same measure for `CC(C)(C)OC(=O)Nc1cc(N2CCC3(CC2)OCCO3)c(I)cc1[N+](=O)[O-]`: 132 to 134 °C.
The same measure for `N#Cc1cc(-c2cc(C(F)F)c3c(-c4cccnc4)nn(C4CCCCO4)c3n2)ccc1N` (centres undefined): 140 °C; for `CN1CCN(C(=O)CN2C(=O)C(NC(=O)Nc3ccc(Cl)cc3)N=C(c3ccccc3)c3ccccc32)CC1` (centres undefined): 278 to 280 °C; for `Nc1ccc(/C=C/c2ccccc2)cc1`: 151 °C.
Molecule `CN(CC(N)=O)S(=O)(=O)Cc1cccc(C(F)(F)F)c1` showed a melting point of 146 to 148 °C.
`CC(C)C[C@H](NC(=O)OCC1CCCCC1)C(=O)N[C@@H](C(C)C)[C@@H](O)c1c(-c2ccc(F)cc2)c1=O` showed a melting point of 86 to 90 °C.
The same measure for `O=C1O[C@@H](CO)CN1c1ccc(C2=CCOCC2)c(F)c1`: 127 to 130 °C.
The same measure for `CCOC(=NC(=O)c1cc(C(F)(F)F)cc(C(F)(F)F)c1)N1Cc2ccccc2-c2ccccc2C1`: 129 to 130 °C; for `CS(=O)(=O)c1ccccc1NC(=O)c1ccccc1O`: 142 to 145 °C; for `CNC(=O)C(C)Oc1ccc(Oc2ccc(C(F)(F)F)cc2)cc1` (centres undefined): 129 to 133 °C.
The same measure for `CC(C)(CCl)C(=O)N(O)Cc1ccccc1F`: 110 to 112 °C.
`CS(=O)(=O)O[C@@H]1CCc2c(F)cc(F)cc2C1` displayed a melting point of 79 to 80 °C.
Molecule `CCCCCC(=O)NC(Cc1cnc(SCCC)n1Cc1ccccc1Cl)C(=O)O` (centres undefined) came in with a melting point of 118 to 121 °C.

For the origin of these results see a melting point compilation (Tetko et al.; mined from patent text by program, amines drawn as free bases though some values may be those of a salt).
